According to ChEMBL document CHEMBL3616432, “(+)-Dehydroabietylamine derivatives target triple-negative breast cancer” (Eur J Med Chem, 2015):
Active and inactive are the calls of the source. No cut-off for these calls is given here.

tested on: MDA-MB-231; assay: Antiproliferative activity against human triple-negative MDA-MB-231 cells at 52 to 65 uM after 72 hrs by CellTiter-Glo assay; assay type: functional, cell-based; conditions: not given

Row | Structure (SMILES) | Activity
1 | CC(C)c1ccc2c(c1)CC[C@H]1[C@](C)(CNC(=O)c3ccc(F)cc3)CCC[C@]21C | inactive
2 | CC(C)c1ccc2c(c1)CC[C@H]1[C@](C)(CNC(=O)C3CCCC3)CCC[C@]21C | inactive
3 | CC(C)c1ccc2c(c1)CC[C@H]1[C@](C)(CNC(=O)c3ccc(C(F)(F)F)cc3)CCC[C@]21C | inactive
4 | CC(C)c1ccc2c(c1)CC[C@H]1[C@](C)(CNC(=O)N3CCCCC3)CCC[C@]21C | inactive
5 | CC(C)c1ccc2c(c1)CC[C@H]1[C@](C)(CNC(=O)[C@@H]3C[C@H]3c3ccccc3)CCC[C@]21C | inactive
6 | CC(C)c1ccc2c(c1)CC[C@H]1[C@](C)(CNC(=O)[C@@H](C)c3ccccc3)CCC[C@]21C | inactive
7 | COc1cccc(C(=O)NC[C@]2(C)CCC[C@]3(C)c4ccc(C(C)C)cc4CC[C@@H]23)c1 | inactive

tested on: HepG2; assay: Cytotoxicity against human HepG2 cells at 52 to 65 uM after 72 hrs by CellTiter-Glo assay; assay type: cell-based; conditions: hepg2, 72 h

Row | Structure (SMILES) | Activity
8 | CC(C)c1ccc2c(c1)CC[C@H]1[C@](C)(CNC(=O)c3ccc(F)cc3)CCC[C@]21C | Non-toxic
9 | CC(C)c1ccc2c(c1)CC[C@H]1[C@](C)(CNC(=O)C3CCCC3)CCC[C@]21C | Non-toxic
10 | CC(C)c1ccc2c(c1)CC[C@H]1[C@](C)(CNC(=O)c3ccc(C(F)(F)F)cc3)CCC[C@]21C | Non-toxic
11 | CC(C)c1ccc2c(c1)CC[C@H]1[C@](C)(CNC(=O)N3CCCCC3)CCC[C@]21C | Non-toxic
12 | CC(C)c1ccc2c(c1)CC[C@H]1[C@](C)(CNC(=O)[C@@H]3C[C@H]3c3ccccc3)CCC[C@]21C | Non-toxic
13 | CC(C)c1ccc2c(c1)CC[C@H]1[C@](C)(CNC(=O)[C@@H](C)c3ccccc3)CCC[C@]21C | Non-toxic
14 | COc1cccc(C(=O)NC[C@]2(C)CCC[C@]3(C)c4ccc(C(C)C)cc4CC[C@@H]23)c1 | Non-toxic

tested on: HEK293; assay: Cytotoxicity against HEK293 cells at 52 to 65 uM after 72 hrs by CellTiter-Glo assay; assay type: cell-based; conditions: human, hek293, 72 h

Row | Structure (SMILES) | Activity
15 | CC(C)c1ccc2c(c1)CC[C@H]1[C@](C)(CNC(=O)c3ccc(F)cc3)CCC[C@]21C | Non-toxic
16 | CC(C)c1ccc2c(c1)CC[C@H]1[C@](C)(CNC(=O)C3CCCC3)CCC[C@]21C | Non-toxic
17 | CC(C)c1ccc2c(c1)CC[C@H]1[C@](C)(CNC(=O)c3ccc(C(F)(F)F)cc3)CCC[C@]21C | Non-toxic
18 | CC(C)c1ccc2c(c1)CC[C@H]1[C@](C)(CNC(=O)N3CCCCC3)CCC[C@]21C | Non-toxic
19 | CC(C)c1ccc2c(c1)CC[C@H]1[C@](C)(CNC(=O)[C@@H]3C[C@H]3c3ccccc3)CCC[C@]21C | Non-toxic
20 | CC(C)c1ccc2c(c1)CC[C@H]1[C@](C)(CNC(=O)[C@@H](C)c3ccccc3)CCC[C@]21C | Non-toxic
21 | COc1cccc(C(=O)NC[C@]2(C)CCC[C@]3(C)c4ccc(C(C)C)cc4CC[C@@H]23)c1 | Non-toxic

species: Homo sapiens; assay: Antiproliferative activity against human ER-positive MA11 cells at 52 to 65 uM after 72 hrs by CellTiter-Glo assay; assay type: functional; conditions: not given

Row | Structure (SMILES) | Activity
22 | CC(C)c1ccc2c(c1)CC[C@H]1[C@](C)(CNC(=O)c3ccc(F)cc3)CCC[C@]21C | inactive
23 | CC(C)c1ccc2c(c1)CC[C@H]1[C@](C)(CNC(=O)C3CCCC3)CCC[C@]21C | inactive
24 | CC(C)c1ccc2c(c1)CC[C@H]1[C@](C)(CNC(=O)c3ccc(C(F)(F)F)cc3)CCC[C@]21C | inactive
25 | CC(C)c1ccc2c(c1)CC[C@H]1[C@](C)(CNC(=O)N3CCCCC3)CCC[C@]21C | inactive
26 | CC(C)c1ccc2c(c1)CC[C@H]1[C@](C)(CNC(=O)[C@@H]3C[C@H]3c3ccccc3)CCC[C@]21C | inactive
27 | CC(C)c1ccc2c(c1)CC[C@H]1[C@](C)(CNC(=O)[C@@H](C)c3ccccc3)CCC[C@]21C | inactive
28 | COc1cccc(C(=O)NC[C@]2(C)CCC[C@]3(C)c4ccc(C(C)C)cc4CC[C@@H]23)c1 | inactive

tested on: MDA-MB-231; assay: Antiproliferative activity against human triple-negative MDA-MB-231 cells at >52.3 uM after 72 hrs by CellTiter-Glo assay; assay type: functional, cell-based; conditions: not given

Row | Structure (SMILES) | Activity
29 | CC(C)c1ccc2c(c1)CC[C@H]1[C@](C)(CNS(=O)(=O)c3c(Cl)cc(Cl)cc3Cl)CCC[C@]21C | Active
30 | CC(C)c1ccc2c(c1)CC[C@H]1[C@](C)(CNS(=O)(=O)c3c(F)cccc3F)CCC[C@]21C | Active
31 | CC(C)c1ccc2c(c1)CC[C@H]1[C@](C)(CNS(=O)(=O)c3cc(F)c(F)c(F)c3)CCC[C@]21C | Active
32 | CC(C)c1ccc2c(c1)CC[C@H]1[C@](C)(CNS(=O)(=O)c3cc(Cl)cc(Cl)c3O)CCC[C@]21C | Active
33 | CC(C)c1ccc2c(c1)CC[C@H]1[C@](C)(CNS(=O)(=O)c3cc(Cl)cc(Cl)c3)CCC[C@]21C | Active
34 | CC(C)c1ccc2c(c1)CC[C@H]1[C@](C)(CNS(=O)(=O)c3ccc(Cl)c(Cl)c3)CCC[C@]21C | Active
35 | CC(C)c1ccc2c(c1)CC[C@H]1[C@](C)(CNS(=O)(=O)c3cccc(Cl)c3Cl)CCC[C@]21C | Active
36 | CC(C)c1ccc2c(c1)CC[C@H]1[C@](C)(CNS(=O)(=O)c3cccc(F)c3)CCC[C@]21C | Active
37 | CC(C)c1ccc2c(c1)CC[C@H]1[C@](C)(CNS(=O)(=O)c3ccc(F)cc3)CCC[C@]21C | Active

tested on: MCF7; assay: Antiproliferative activity against human ER-positive MCF7 cells at 52 to 65 uM after 72 hrs by CellTiter-Glo assay; assay type: functional, cell-based; conditions: not given

Row | Structure (SMILES) | Activity
38 | CC(C)c1ccc2c(c1)CC[C@H]1[C@](C)(CNC(=O)c3ccc(F)cc3)CCC[C@]21C | inactive
39 | CC(C)c1ccc2c(c1)CC[C@H]1[C@](C)(CNC(=O)C3CCCC3)CCC[C@]21C | inactive
40 | CC(C)c1ccc2c(c1)CC[C@H]1[C@](C)(CNC(=O)c3ccc(C(F)(F)F)cc3)CCC[C@]21C | inactive
41 | CC(C)c1ccc2c(c1)CC[C@H]1[C@](C)(CNC(=O)N3CCCCC3)CCC[C@]21C | inactive
42 | CC(C)c1ccc2c(c1)CC[C@H]1[C@](C)(CNC(=O)[C@@H]3C[C@H]3c3ccccc3)CCC[C@]21C | inactive
43 | CC(C)c1ccc2c(c1)CC[C@H]1[C@](C)(CNC(=O)[C@@H](C)c3ccccc3)CCC[C@]21C | inactive
44 | COc1cccc(C(=O)NC[C@]2(C)CCC[C@]3(C)c4ccc(C(C)C)cc4CC[C@@H]23)c1 | inactive
